Patent US12398107B2, “Fungicidal nitroanilino substituted pyrazoles” (FMC Corporation, priority 2018, dated 2025)

What was measured:
Type in all cases: in vivo
[1] = system: Puccinia recondita f. sp. tritici; assay: Test B: wheat leaf rust, preventive spray on wheat seedlings; conditions: 50 ppm, 100 = 100% disease control, 0 = no control relative to controls
How it was run: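 Compounds in acetone/water (50/50) with 250 ppm PEG400, sprayed to run-off on wheat seedlings at stated ppm; inoculated next day with P. recondita spores. Held 24 h saturated at 20° C., then 7 days in growth chamber at 20° C.; rating 0–100 = % disease control vs controls.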

Septoria tritici = assay: Test A: wheat leaf blotch, preventive spray on wheat seedlings; conditions: 50 ppm, 100 = 100% disease control, 0 = no control relative to controls
How it was run: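 Compounds were suspended in acetone/water (50/50) with 250 ppm PEG400 and sprayed to run-off on wheat seedlings. The next day the seedlings were inoculated with Septoria tritici spores, held 48 h at 24 °C in saturated humidity, then 17 days at 20 °C. Disease control was rated 0–100 relative to controls.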

Botrytis cinerea = assay: Test E: tomato Botrytis, preventive spray on tomato seedlings; conditions: 50 ppm, 100 = 100% disease control, 0 = no control
How it was run: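 Tomato seedlings sprayed to run-off with compound (ppm) in acetone/water with 250 ppm PEG400, then inoculated next day with B. cinerea spores. Held 48 h at 20 °C in saturated atmosphere, then 3 days at 24 °C. Visual rating 0–100% disease control relative to untreated controls.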

[2] = system: Blumeria graminis f. sp. tritici; assay: Test C: wheat powdery mildew, preventive spray on wheat seedlings; conditions: 50 ppm, rated after 8 days, 100 = 100% disease control, 0 = no control
How it was run: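 Compound dissolved in acetone (3% of final volume), then suspended in 50/50 acetone/water with 250 ppm PEG400 and sprayed to run-off on wheat seedlings. Inoculated next day with B. graminis f. sp. tritici spore dust, kept 8 days at 20° C; visual rating, 100 = full control, 0 = none, relative to controls.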

Phakopsora pachyrhizi = assay: Test D: Asian soybean rust, preventive spray on soybean seedlings; conditions: 50 ppm, 100 = 100% disease control, 0 = no control
How it was run: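 Soybean seedlings sprayed to run-off with compound suspension (ppm, in 50/50 acetone/water with 250 ppm PEG400), inoculated next day with P. pachyrhizi spores, held 24 h saturated at 22°C then 8 days at 22°C. Visual rating 0-100% disease control relative to controls.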

Alternaria solani = assay: Test F: tomato early blight, preventive spray on tomato seedlings; conditions: 50 ppm, 100 = 100% disease control, 0 = no control
How it was run: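 Compounds in acetone/water (50/50) with 250 ppm PEG400, dosed in ppm, sprayed to run-off on tomato seedlings; next day inoculated with A. solani spores. Held 48 h saturated at 27° C, then 3 days at 20° C; visual rating 0–100% disease control relative to controls.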

Row | Structure (SMILES) | Test B disease control rating (wheat leaf rust) [1] [%] | Test A disease control rating (wheat leaf blotch) (Septoria tritici) [%] | Test E disease control rating (tomato Botrytis) (Botrytis cinerea) [%] | Test C disease control rating (wheat powdery mildew) [2] [%] | Test D disease control rating (Asian soybean rust) (Phakopsora pachyrhizi) [%] | Test F disease control rating (tomato early blight) (Alternaria solani) [%] | pest or weed control at 50 ppm ([1]; read-out: Test B disease control rating (wheat leaf rust)) [%] | pest or weed control at 50 ppm (Septoria tritici; Zymoseptoria tritici, read-out: Test A disease control rating (wheat leaf blotch)) [%] | pest or weed control at 50 ppm (Botrytis cinerea; Botrytis cinerea, read-out: Test E disease control rating (tomato Botrytis)) [%] | pest or weed control at 50 ppm ([2]; Blumeria graminis, 192 h, read-out: Test C disease control rating (wheat powdery mildew)) [%] | pest or weed control at 50 ppm (Phakopsora pachyrhizi; Phakopsora pachyrhizi, read-out: Test D disease control rating (Asian soybean rust)) [%] | pest or weed control at 50 ppm (Alternaria solani; Alternaria solani, read-out: Test F disease control rating (tomato early blight)) [%]
1 | Cc1nn(C)c(Nc2c(F)cc(F)cc2[N+](=O)[O-])c1-c1c(F)cccc1Cl [Compound 39] | 100 | 100 | 88 | 99 | 73 | 99 | – | – | – | – | – | –
2 | Cc1nn(C)c(Nc2c(F)cc(F)cc2[N+](=O)[O-])c1-c1ccc(F)cc1Br [Compound 51] | 100 | 100 | 98 | 100 | 79 | 99 | – | – | – | – | – | –
3 | Cc1cc(F)c(Nc2c(-c3ccc(F)cc3Br)c(C)nn2C)c([N+](=O)[O-])c1 [Compound 40] | 100 | 100 | 98 | 100 | 82 | 100 | – | – | – | – | – | –
4 | Cc1nn(C)c(Nc2c(Cl)cc(Cl)cc2[N+](=O)[O-])c1-c1ccc(F)cc1F [Compound 101] | 99 | 100 | 99 | 89 | 44 | 0 | – | – | – | – | – | –
5 | Cc1nn(C)c(Nc2c(F)cc(Br)cc2[N+](=O)[O-])c1-c1ccc(C#N)cc1Cl [Compound 155] | 99 | 99 | 100 | 90 | 0 | 93 | – | – | – | – | – | –
6 | Cc1cccc([N+](=O)[O-])c1Nc1c(-c2ccc(C#N)cc2Cl)c(C)nn1C [Compound 157] | 97 | 100 | 9 | 76 | 0 | 0 | – | – | – | – | – | –
7 | Cc1nn(C)c(Nc2c(F)cccc2[N+](=O)[O-])c1-c1ccc(Cl)cc1F [Compound 12] | 99 | 100 | 97 | 81 | 0 | 53 | – | – | – | – | – | –
8 | Cc1nn(C)c(Nc2ccccc2[N+](=O)[O-])c1-c1c(F)cc(F)cc1Cl [Compound 148] | 99 | 100 | 99 | 98 | 13 | 100 | – | – | – | – | – | –
9 | COc1cc(F)c(Nc2c(-c3c(F)cccc3Cl)c(C)nn2C)c([N+](=O)[O-])c1 [Compound 23, 4-(2-chloro-6-fluorophenyl)-N-(2-fluoro-4-methoxy-6-nitrophenyl)-1,3-dimethyl-1H-pyrazol-5-amine] | – | – | – | – | – | – | 100 | 100 | 97 | 100 | 99 | 99
10 | CCc1nn(C)c(Nc2ccc(C)cc2[N+](=O)[O-])c1-c1ccc(F)cc1F [Compound 175] | 86 | 100 | 88 | 79 | 0 | 0 | – | – | – | – | – | –
11 | Cc1nn(C)c(Nc2c(Cl)cccc2[N+](=O)[O-])c1-c1c(F)cccc1Cl [Compound 38] | 99 | 100 | 88 | 95 | 0 | 0 | – | – | – | – | – | –
12 | Cc1cccc([N+](=O)[O-])c1Nc1c(-c2c(F)cc(F)cc2F)c(C)nn1C [Compound 167] | 100 | 100 | 95 | 98 | 65 | 98 | – | – | – | – | – | –
13 | Cc1nn(C)c(Nc2ccc(OC(F)F)cc2[N+](=O)[O-])c1-c1ccc(F)cc1Cl [Compound 28] | 68 | 91 | 99 | 69 | 0 | 0 | – | – | – | – | – | –
